This is an account of results in patent publication US20110160055A1, “Imidazole and Triazole Compounds as Fungicides” (BASF SE, priority 2008, published 2011).

Test [1] deals with Phakopsora pachyrhizi. The experiment in a line: Example G1: curative activity against soybean rust, greenhouse, sprayed two days after the 24 h incubation. In kind it is in vivo. The following applies: potted soybean seedlings, 150 ppm aqueous preparation sprayed two days after incubation, rated after a further 10 days; untreated plants 90% infected. As to the method:
(§1) Subsequently, it was made up to 100 ml with water. This stock solution was diluted with the solvent/emulsifier/water mixture described to the active compound concentration indicated below. Alternatively to this, the active compounds were used as a commercially available ready-to-use solution and diluted with water to the active compound concentration indicated. Curative activity against soybean rust caused by Phakopsora pachyrhizi Leaves of potted soybean seedlings were inoculated with a spore suspension of soybean rust (Phakpsora pachyrhizi). […] During this time, the spores germinated and the germ tubes penetrated into the leaf tissue. Infected plants were then cultivated further in a greenhouse at temperatures between 23 and 27° C. and 60 to 80% relative atmospheric humidity. After two days, the plants were sprayed to run off point with the active compound solution described above at the active compound concentration stated below. After the spray coating had dried on, the test plants were cultivated in a greenhouse at temperatures between 23 and 27° C. and 60 to 80% relative atmospheric humidity for a further 10 days. The extent of the rust fungus development on the leaves was then determined visually in % infection.

Test [2] has as its system Phakopsora pachyrhizi. The experiment in a line: Example G2: curative activity against soybean rust, greenhouse, sprayed directly after the 24 h incubation. In kind it is in vivo. Conditions: potted soybean seedlings, 150 ppm aqueous preparation sprayed after 24 h incubation, rated after a further 14 days; untreated plants 90% infected. As to the method:
as §1, with “then” for “then cultivated further in a greenhouse at temperatures between 23 and 27° C. and 60 to 80% relative atmospheric humidity. After two days, the plants were”, “further 14” for “further 10”

For `CC(COc1ccccc1Cl)=C(C)CC(C(O)C(C)(C)C)n1cncn1` (centres unmarked) [I.A6b], the “infection (extent of rust fungus development on the leaves, visual)” value with Phakopsora pachyrhizi [1] is listed as 0%. For `CC(COc1cccc(Cl)c1Cl)=C(C)CC(C(O)C(C)(C)C)n1cncn1` (centres unmarked) [I.A14a], the “infection (extent of rust fungus development on the leaves, visual)” value in the test on Phakopsora pachyrhizi [2] is 0%.
